Source: patent US9873883B2, “Glyphosate resistant plants and associated methods” (Dow AgroSciences LLC, priority 2012, dated 2018)

Experiments:
[1] = biological target: Triticum aestivum (wheat) EPSP synthase DGT-7 v5, native (GENBANK EU977181), SEQ ID NO: 60 (Triticum aestivum, UniProt B5M6A1); assay: In vitro kinetic assay (inorganic phosphate production, malachite green); type: biochemical
Text: (§1) FIG. 1 depicts a partial sequence alignment of DGT-14 (SEQ ID NO:46), DGT-11 (SEQ ID NO:47), DGT-12 (SEQ ID NO:49), DGT-18 (SEQ ID NO:50), DGT-29 (SEQ ID NO:53), and DGT-30 (SEQ ID NO:52) to other EPSP synthase enzymes, such as; grg-23 (SEQ ID NO:54; derived from U.S. Pat. No. 7,834,249), CP4 (SEQ ID NO:48; GENBANK ACC NO: AEM75108.1) from Agrobacterium tumefaciens, DGT-3 (SEQ ID NO:57; GENBANK ACC NO: P17688) from Brassica napus, DGT-1 (SEQ ID NO:56) from Glycine max, DGT-7 (SEQ ID NO:55; GENBANK ACC NO: EU977181) from Triticum aestivum, and aroA (SEQ ID NO:51; Padgette et al., (1991); Eschenburg et al., (2002); Priestman et al., (2005); Haghani et al., (2008) from Escherichia coli. All six DGT enzymes (DGT-14, DGT-11, DGT-12, DGT-18, DGT-30, and DGT-29) share a conserved alanine at the aroA EPSP synthase enzyme amino acid position 96. The location of this amino acid is indicated by an asterisk, and the amino acid residue is underlined.
(§2) The location of the amino acid residue which was mutated from glycine to alanine is indicated by the first asterisk. The location of the amino acid residue which was mutated from threonine to isoleucine is indicated by the second asterisk. The location of the third amino acid residue which was mutated from proline to serine is indicated by the third asterisk.
(§3) The following Class I enzymes: DGT-1 from Glycine max, DGT-3 from Brassica napus (GENBANK ACC NO: P17688), and DGT-7 from Triticum aestivum (GENBANK ACC NO: EU977181) were used as a comparison. The Class I EPSP synthase enzymes and mutant variants thereof were synthesized and evaluated. A mutation introduced into the plant EPSP synthase enzymes consisted of the Glycine to Alanine mutation made within the EPSP synthase enzyme at a similar location as that of the G96A mutation from the E. coli version of the enzyme. In addition, Threonine to Isoleucine and Proline to Serine mutations were introduced within these Class I EPSP synthase enzymes at analogous positions as that of amino acid 97 (T to I) and amino acid 101 (P to S) in the EPSP synthase of E. coli as described in Funke et al., (2009).
(§4) Additional constructs containing the dgt-1, dgt-3 and dgt-7 were synthesized. These constructs were used for in vitro testing of the dgt-1 v5, dgt-1 v6, dgt-1 v7, dgt-1 v8, dgt-3 v6, dgt-3 v7, dgt-3 v8, dgt-7 v5, dgt-7 v6, dgt-7 v7, and dgt-7 v8 gene sequences were outsourced to GeneArt for synthesis and cloning. The synthesized genes were cloned into the pET28 expression vector. […]

[2] = biological target: Glycine max (soybean) EPSP synthase DGT-1 v5, native, SEQ ID NO: 59 (Glycine max, UniProt I1J7U9); assay: as above; type: biochemical
Chain of Glycine max (soybean) EPSP synthase DGT-1 v5, native, SEQ ID NO: 59 (I1J7U9 entry or part of it): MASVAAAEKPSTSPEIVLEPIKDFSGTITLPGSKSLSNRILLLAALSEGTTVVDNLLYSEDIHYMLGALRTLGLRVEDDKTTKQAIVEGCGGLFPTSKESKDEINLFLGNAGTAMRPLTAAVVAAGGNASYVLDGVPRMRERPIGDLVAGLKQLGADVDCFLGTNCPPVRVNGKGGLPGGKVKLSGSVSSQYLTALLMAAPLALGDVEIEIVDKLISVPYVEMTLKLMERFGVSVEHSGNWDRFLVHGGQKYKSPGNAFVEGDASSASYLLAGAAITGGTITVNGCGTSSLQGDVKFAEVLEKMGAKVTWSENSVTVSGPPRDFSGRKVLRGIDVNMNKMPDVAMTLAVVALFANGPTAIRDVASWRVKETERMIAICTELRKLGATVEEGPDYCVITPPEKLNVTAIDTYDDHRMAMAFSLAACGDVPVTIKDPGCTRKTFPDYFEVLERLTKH
Text: as §1, §2, §3, §4

Chain of Triticum aestivum (wheat) EPSP synthase DGT-7 v5, native (GENBANK EU977181), SEQ ID NO: 60 (B5M6A1 entry or part of it): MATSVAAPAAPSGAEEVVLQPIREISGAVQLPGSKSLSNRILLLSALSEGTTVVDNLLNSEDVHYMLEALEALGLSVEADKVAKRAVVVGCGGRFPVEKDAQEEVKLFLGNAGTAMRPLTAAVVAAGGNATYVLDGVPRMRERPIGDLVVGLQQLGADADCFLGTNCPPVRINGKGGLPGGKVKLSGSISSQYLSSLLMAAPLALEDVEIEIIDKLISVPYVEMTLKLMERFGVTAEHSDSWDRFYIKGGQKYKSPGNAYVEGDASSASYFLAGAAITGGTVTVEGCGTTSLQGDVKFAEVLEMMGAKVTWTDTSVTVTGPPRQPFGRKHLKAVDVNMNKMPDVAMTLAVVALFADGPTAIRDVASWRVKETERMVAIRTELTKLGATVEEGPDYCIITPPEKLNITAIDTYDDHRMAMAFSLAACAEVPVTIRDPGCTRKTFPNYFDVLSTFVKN

Row | SMILES | kcat/Km ([1]; PEP, pH 7.5, 1 mM S3P) [M⁻¹ s⁻¹] | kcat/Km ([2]; PEP, pH 7.5, 1 mM S3P) [M⁻¹ s⁻¹] | IC50 [1] [µM] | IC50 [2] [µM]
1 | C=C(OP(=O)(O)O)C(=O)O [PEP, phosphoenolpyruvate] | 215000 | 74100 |  | 
2 | O=C(O)CNCP(=O)(O)O [glyphosate, N-(phosphonomethyl)glycine] |  |  | ~20 | ~20
